# According to patent US6800659B2, “Compounds for modulating cell proliferation” (HSC Research and Development Limited Partnership, priority 2000, dated 2004):
# Entries after “also recorded” stand apart in the source; their conditions may differ.
# Experiments:
# [1] = system: OCl-AML-3 acute myeloid leukemia cells; experiment: Colony growth of AML-3 cells in methylcellulose culture; type: cell-based; conditions: 300-600 nM; colonies at 5-6 days (FIG. 4)
# Protocol: OCl-AML-3 cells were plated in 35 mm petri dishes (Nunc, Gibco) in 1 ml volumes at a density of 3.3×10^3 cells/ml, in the absence of exogenous growth factors, containing alpha MEM plus 20% FCS (Cansera, Rexdale Ont.), and 0.9% (vol/vol) methylcellulose (Fluka, Switzerland) and the indicated concentrations of CR4. Cell cultures were incubated in a humidified atmosphere at 37° C. with 5% CO2. Colonies containing more than 20 cells were scored, using an inverted microscope, at 5-6 days.
# [2] = system: normal bone marrow cells; experiment: In vitro purging of normal bone marrow, then colony assay; type: cell-based
# Protocol: Heparinized bone marrow cells were layered over Percoll (1.077 gm/ml) (Pharmacia Fine Chemical, Piscataway N.J.) and centrifuged at 400 g at 4° C. for 10 minutes to remove neutrophils and RBCs.
# For the purging process, the cells were resuspended at 1×10^6/ml in complete medium with or without 50 μM CR4. The cells were incubated with the CR4 for two and a half hours at 37° C., 5% CO2. At the end of this period the cells were thoroughly washed in medium to remove CR4 and then cultured at 2×10^5 cells/ml in IMDM (OCl, Toronto) containing 0.9% (vol/vol) methylcellulose supplemented with 30% FCS (Cansera Rexdale, ON.) or normal human plasma, a cocktail of cytokines containing G-CSF (10 ng/ml, Amgen), IL-3 (40 U/ml, Immunex), MGF (50 ng/ml, Immunex), Etryhropoietin (2 u/ml, Epprex) or TPO (10 ng/ml, Amgen) and 5×10^−5M b-2-mercaptoethanol. The culture mixture was plated in 1 ml volumes into 35 mm petri dishes and incubated at 37° C., 5% CO2 in a humidified atmosphere. All cultures were evaluated at 14 days for the number of BFU-E colonies (defined as aggregates of more than 500 hemaglobinized cells or, 3 or more erythroid subcolonies), CFU-C colonies (defined as granulocyte or monocyte-macrophage cells or both) and CFU-GEMM colonies (a mixed population comprising of all elements).
# For the purging process, the cells were resuspended at 1×10^6/ml in complete medium with or without 50 μM CR11. The cells were incubated with the tryrphostin for seven hours at 37° C., 5% CO2. At the end of this period the cells were thoroughly washed in medium to remove CR11 and then cultured at 2×10^5 cells/ml in IMDM (OCl, Toronto) containing 0.9% (vol/vol) methylcellulose supplemented with 30% FCS (Cansera Rexdate, ON.) or normal human plasma, a cocktail of cytokines containing G-CSF (10 ng/ml, Amgen), IL-3 (40 U/ml, Immunex), MGF (50 ng/ml, Immunex), Erythropoietin (2 u/ml, Epprex) or TPO (10 ng/ml, Amgen) and 5×10^−5M β-2-mercaptoethanol. The culture mixture was plated in 1 ml volumes into 35 mm petri dishes and incubated at 37° C., 5% CO2 in a humidified atmosphere. All cultures were evaluated at 14 days for the number of BFU-E colonies (defined as aggregates of more than 500 hemoglobinized cells or, 3 or more erythroid subcolonies), CFU-C colonies (defined as granulocyte or monocyte-macrophage cells or both) and CFU-GEMM colonies (a mixed population comprising of all elements).
# [3] = system: OCl-AML-3 cells; experiment: In vitro purging of OCl-AML-3 acute myeloid leukemia cells; type: cell-based; conditions: 2.5-5 hours exposure (FIG. 17)
# Protocol: (§1) For the purging assay, the cells were resuspended in complete medium with or without CR4 as indicated and incubated at 37° C., 5% CO2 for 0-5 hours. Cells were then washed thoroughly with medium to remove CR4, resuspended and plated in 1 ml volumes at 5×10^3 cells/ml, in the absence of exogenous growth factors, into 35 mm petri dishes (Nunc, Gibco) containing alpha MEM (Gibco) plus 10% FCS (Cansera Rexdale, ON.) in 0.9% (vol/vol) methylcellulose (Fluka, Switzerland). Cultures were set at 37° C., 5% CO2 in a humidified atmosphere. Colonies consisting of more than 20 cells were counted at 5 days or earlier using an inverted microscope.
# [4] = system: Ramos B cell Burkitt's lymphoma cells; experiment: In vitro purging of Ramos B cell Burkitt's lymphoma cells; type: cell-based; conditions: 50 μM, 5 hours exposure (FIG. 18)
# Protocol: as §1, with “remove the” for “remove”, “ml volumes,” for “ml volumes at 5×10^3 cells/ml,”, “containing RPMI 1640” for “containing alpha MEM”, “at 12” for “at 5”
# [5] = system: Philadelphia positive Z119 Acute lymphoblastic leukemia cells; experiment: In vivo treatment of Philadelphia positive ALL in NOD-SCID mice
# Protocol: NOD-SCID mice were irradiated (350 rads) and injected with 5×10^6 Philadelphia positive Z119 Acute lymphoblastic leukemia cells. After 24 hours Alzet micro-osmotic pumps (Alza Corp. Paolo Alto, Calif.) were implanted subcuntaneously, containing either 20 mM solution of CR4 in 50% DMSO/medium or 50% DMSO/medium alone. Alzet 2001 pumps were utilized, holding a total volume of 200 μl and releasing 1 μl per hour over 7-10 days. Pumps were replaced after 7 days. Each mouse received a daily dose of 0.154 mg of CR4.
# After 14 (FIG. 20A) and 21 (FIG. 20B) days mice were sacrificed and bone marrow extracted from the fore and hind limbs. Single cell suspensions were prepared, red blood cells lysed and the samples stained with PE-labelled isotype, anti-human CD19 and anti-human HLA-DR antibodies to detect the presence of Z119 cells.
# At d14, bone marrow cell cultures were also performed to assess the presence of Z119 cells 5×10^4 BM cells were cultured in IMDM (OCl, Toronto) containing 0.9% (vol/vol) methylcellulose supplemented with 30% serum consisting of a 1:1 mixture of FCS (Cansera Rexdale, ON.) and normal human plasma. No cytokines are added. Under these conditions there is no growth of murine cells. The culture mixture was plated in 1 ml volumes into 35 mm petri dishes and incubated at 37° C., 5% CO2 in a humidified atmosphere. All cultures were evaluated at 9 days for the number of ALL colonies.
# [6] = Retention in blood after I.V. injection; type: in vivo; conditions: 30 minutes after I.V. injection
# [7] = two and a half hours exposure to 50 μM (FIG. 14)
# [8] = daily dose of 0.154 mg by subcutaneous Alzet pump
compound,measurement,setting,value
"N#C/C(=C\C=C\c1ccc(O)c(O)c1)C(=O)NCc1ccccc1 [CR4, (E,E)-2-(benzylaminocarbonyl)-3-(3,4-dihydroxystyryl)acrylonitrile]",inhibition of AML-3 cell proliferation and survival,[1],complete inhibition
same,normal bone marrow growth and differentiation,"[2]; identical doses and times: 25-50 μM, 2.5 to 5 hour exposure",unaffected
same,BFU-E colonies,[2]; [7],slight drop
same,CFU-C colony numbers,[2]; [7],increased significantly
same,inhibition of colony formation,"[2]; two and a half hours exposure to 50 μM, colonies at 14 days (FIG. 14)",did not result in significant inhibition
same,killing of OCl-AML-3 cells,[3]; 25 μM,significant killing
same,killing of OCl-AML-3 cells,[3]; 50 μM,significant killing
same,killing of Ramos cells,[4],70%
same,non-specific toxicity / damage to the animal,[5]; at the doses required to eliminate cancer cell growth,do not result in detectable non-specific damage; also recorded: No evidence of non-specific toxicity
same,"ALL infiltration of the organs (liver, kidney, spleen) and peripheral blood",[5]; [8],below detectable levels; also recorded: below detection level
same,reduction in the infiltration of ALL cells into the bone marrow,[5]; [8],90%
same,ALL infiltration of the bone marrow relative to control mice,"[5]; day 14 and day 21 sacrifices, daily dose of 0.154 mg by subcutaneous Alzet pump (FIGS. 20A, 20B)",significant reduction
same,tumor load and infiltration of the organs by the ALL cells,[5]; murine model of human Ph+ ALL,efficiently reduced
same,reduction in ALL infiltration of bone marrow,"[5]; within a two week period, murine model of human Ph+ ALL",greater than 90%
same,retention: presence in the blood,[6],still being detectable
